Measurements: article PMC10108392, “Rimonabant-Based Compounds Bearing Hydrophobic Amino Acid Derivatives as Cannabinoid Receptor Subtype 1 Ligands” (ACS Medicinal Chemistry Letters, 2023)

How the values were obtained:
CB1R [1] = molecular target: T1, CB1R (Rattus norvegicus, UniProt P20272); assay: [3H]WIN55,212-2 radioligand competition binding assay in rat brain membrane homogenate; conditions: for Ki: read-out: Ki [3H]WIN55,212-2 binding, 5 nM [3H]WIN55,212-2, ± SEM, n.b. = no binding of ligands was observed; for Ki [3H]WIN55,212-2 binding: 5 nM [3H]WIN55,212-2, ± SEM, n.b. = no binding of ligands was observed
T1 construct: Crude membrane fractions were prepared from the brain; from tissue; host or cells: Wistar rat whole brain, crude membrane fraction
Protocol: (§1) Our novel chemical compounds were tested in vitro for their binding ability, efficacy, and potency on CB1R in rat brain membrane homogenate (Table 2 and SI, Figure S1). CB1Rs are the most abundant G-protein coupled receptors in the rodent and mammalian brain; therefore, this is an appropriate model to characterize our ligands in a more physiological system.
(§2) In Vitro Biological Assays
(§3) Preparation of Brain Membrane Homogenates
(§4) Wistar rats were locally bred and handled according to the EU Directive 2010/63/EU and to the Regulations on Animal Protection (40/2013. (II. 14.) Korm. r.) of Hungary. Crude membrane fractions were prepared from the brain. Brains were quickly removed from the euthanized rats and directly put in an ice-cold 50 mM Tris-HCl buffer (pH 7.4). The collected tissue was then homogenized in 30 volumes (v/w) of an ice-cold buffer with a Braun Teflon-glass homogenizer at the highest rpm. The homogenate was centrifuged at 20,000 × g for 25 min, and the resulting pellet was suspended in the same volume of a cold buffer followed by incubation at 37 °C for 30 min to remove endogenous ligands. Centrifugation was then repeated. The final pellets were taken up in five volumes of a 50 mM Tris-HCl (pH 7.4) buffer containing 0.32 M sucrose and stored at -80 °C. Prior to the experiment, aliquots were thawed and centrifuged at 20,000 ×g for 25 min and then they were resuspended in 50 mM Tris-HCl (pH 7.4), homogenized with a Douncer, followed by the determination of the protein concentration by the method of Bradford. The membrane suspensions were immediately used either in radioligand binding experiments or in [35S]GTPγS functional assays.
Radioligand Competition Binding Assay
Binding experiments were performed at 30 °C for 60 min in a 50 mM Tris-HCl binding buffer (pH 7.4) containing 2.5 mM of EGTA, 5 mM of MgCl2 and 0.5 mg/mL of fatty acid-free BSA in plastic tubes in a total assay volume of 1 mL that contained 0.3-0.5 mg/mL of a membrane protein. Competition binding […]
ligands. […] The incubation […]
was terminated by diluting the samples with an ice-cold wash buffer (50 mM of Tris-HCl, 2.5 mM of EGTA, 5 mM of MgCl2, 0.5% fatty acid free BSA, pH 7.4), followed by repeated washing and rapid filtration through Whatman GF/B glass fiber filters (Whatman Ltd., Maidstone, UK) pre-soaked with 0.1% polyethyleneimine (30 min before the filtration). Filtration was performed with a 24-well Brandel Cell Harvester (Gaithersburg, MD, USA). Filters were air-dried and immersed into Ultima Gold MV scintillation cocktail, and then radioactivity was measured with a TRI-CARB 2100TR liquid scintillation analyzer (Packard, Perkin Elmer, Waltham, MA, USA). […]
The results of the competition binding studies are reported as means ± S.E.M. of at least three independent experiments each performed in duplicate. In competition binding studies, the inhibitory constants (Ki) were calculated from the inflection points of the displacement curves using non-linear least-square curve fitting and the Cheng-Prusoff equation, Ki= […]/(1 + [ligand]/Kd). […]

CB1R [2] = molecular target: T1, CB1R; assay: Ligand stimulated [35S]GTPγS binding assay in rat brain membranes; assay type: biochemical; conditions: for EC50 / CB1R functional profile (agonist / antagonist / inverse agonist): rat brain membranes; for EC50: ± SEM, read-out: [35S]GTPγS stimulation EC50; for CB1R functional profile (agonist / antagonist / inverse agonist): from [35S]GTPγS binding; for Emax: read-out: [35S]GTPγS stimulation Emax
Protocol: as §1, §2, §3
as §4, with “assays. […]” for “assays.”
was terminated by diluting the samples with an ice-cold wash buffer (50 mM of Tris-HCl, 2.5 mM of EGTA, 5 mM of MgCl2, 0.5% fatty acid free BSA, pH 7.4), followed by repeated washing and rapid filtration through Whatman GF/B glass fiber filters (Whatman Ltd., Maidstone, UK) pre-soaked with 0.1% polyethyleneimine (30 min before the filtration). Filtration was performed with a 24-well Brandel Cell Harvester (Gaithersburg, MD, USA). Filters were air-dried and immersed into Ultima Gold MV scintillation cocktail, and then radioactivity was measured with a TRI-CARB 2100TR liquid scintillation analyzer (Packard, Perkin Elmer, Waltham, MA, USA).
Ligand Stimulated [35S]GTPγS Binding Assay
Rat brain membranes (30 µg protein/tube), prepared as described above, were incubated with 0.05 nM of […]
mM of NaCl, 3 mM of MgCl2 and 1 mM of EGTA in a 50 mM Tris-HCl buffer (pH 7.4) for 60 min at 30 °C. Basal [35S]GTPγS binding was measured in the absence of ligands and set as 100%. Nonspecific […]
binding was determined by the addition of 10 µM unlabelled GTPγS and subtracted from total binding.
Incubation, filtration and radioactivity measurements of the samples were carried out as described above. […]
All […]
data and curves were analyzed by GraphPad Prism 5.0 (San Diego, CA, USA).

T1 sequence (P20272 whole entry): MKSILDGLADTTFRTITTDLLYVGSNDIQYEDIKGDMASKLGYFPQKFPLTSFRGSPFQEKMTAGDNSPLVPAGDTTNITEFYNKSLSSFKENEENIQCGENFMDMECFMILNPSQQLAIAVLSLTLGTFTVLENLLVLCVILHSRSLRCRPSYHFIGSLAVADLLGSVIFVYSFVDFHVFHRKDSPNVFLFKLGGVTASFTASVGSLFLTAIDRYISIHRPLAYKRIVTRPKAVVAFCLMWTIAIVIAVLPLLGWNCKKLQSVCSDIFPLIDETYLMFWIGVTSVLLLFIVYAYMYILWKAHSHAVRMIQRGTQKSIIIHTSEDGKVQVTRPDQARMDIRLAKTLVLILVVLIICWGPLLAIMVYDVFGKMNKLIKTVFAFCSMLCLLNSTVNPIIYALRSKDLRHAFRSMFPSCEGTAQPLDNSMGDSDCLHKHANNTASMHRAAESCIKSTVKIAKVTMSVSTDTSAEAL

Row | Structure (SMILES) | Ki (CB1R [1]) [nM] | EC50 (CB1R [2]) [nM] | Ki [3H]WIN55,212-2 binding (CB1R [1]) | CB1R functional profile (agonist / antagonist / inverse agonist) (CB1R [2]) | Emax (CB1R [2]) [%]
1 | CC(C)[C@H](NC(=O)c1cc(-n2cccc2)n(-c2ccc(Cl)cc2)n1)C(N)=O [Compound 11, RS2689-Val-NH2] | 341 ± 19 | 1160 ± 79 | – | – | –
2 | CC(C)[C@H](NC(=O)c1cc(-n2cccc2)n(-c2ccccc2)n1)C(=O)O [Compound 5, RS2708-Val-OH] | – | 1650 ± 75 | n.b. | – | –
3 | CNC(=O)[C@@H](NC(=O)c1nn(-c2ccc(Cl)cc2Cl)c(-n2cccc2Cl)c1C)C(C)(C)C [Compound 40, RS3516-tLeu-NHCH3] | – | 237 ± 45 | n.b. | – | –
4 | COC(=O)[C@@H](NC(=O)c1cc(-n2cccc2)n(-c2ccccc2)n1)C(C)C [Compound 25, RS2708-Val-OCH3] | 1360 ± 16 | 468 ± 22 | – | – | –
5 | Cc1c(C(=O)N[C@H](C(=O)O)C(C)(C)C)nn(-c2ccc(Cl)cc2Cl)c1-n1cccc1Cl [Compound 10, RS3516-tLeu-OH] | – | 1650 ± 98 | n.b. | – | –
6 | Cc1c(C(=O)N[C@H](C(=O)O)C(C)(C)C)nn(-c2ccccc2)c1-n1cccc1 [Compound 8, RS2709-tLeu-OH] | – | 3400 ± 118 | n.b. | – | –
7 | COC(=O)[C@@H](NC(=O)c1nn(-c2ccc(Cl)cc2Cl)c(-n2cccc2Cl)c1C)C(C)(C)C [Compound 30, RS3516-tLeu-OCH3] | 21 ± 4.4 | 4390 ± 344 | – | – | –
8 | CC(C)[C@H](NC(=O)c1cc(-n2cccc2)n(-c2ccc(Cl)cc2)n1)C(=O)O [Compound 1, RS2689-Val-OH] | – | 5870 ± 372 | n.b. | – | –
9 | CC(C)(C)[C@H](NC(=O)c1cc(-n2cccc2)n(-c2ccc(Cl)cc2)n1)C(N)=O [Compound 12, RS2689-tLeu-NH2] | 102 ± 16 | – | – | – | –
10 | Cc1c(C(=O)N[C@H](C(N)=O)C(C)C)nn(-c2ccc(Cl)cc2)c1-n1cccc1 [Compound 13, RS2691-Val-NH2] | 123 ± 13 | – | – | – | –
11 | CNC(=O)[C@@H](NC(=O)c1cc(-n2cccc2)n(-c2ccccc2)n1)C(C)C [Compound 35, RS2708-Val-NHCH3] | 7940 ± 266 | 2460 ± 240 | modest affinity | weak inverse agonist | –
12 | COC(=O)[C@@H](NC(=O)c1nn(-c2ccccc2)c(-n2cccc2)c1C)C(C)C [Compound 27, RS2709-Val-OCH3] | 449 ± 15 | 2080 ± 129 | – | – | –
13 | CNC(=O)[C@@H](NC(=O)c1cc(-n2cccc2)n(-c2ccccc2)n1)C(C)(C)C [Compound 36, RS2708-tLeu-NHCH3] | 616 ± 16 | – | – | antagonists | –
14 | Cc1c(C(=O)N[C@H](C(=O)O)C(C)C)nn(-c2ccccc2)c1-n1cccc1 [Compound 7, RS2709-Val-OH] | – | 2550 ± 106 | n.b. | – | –
15 | CC(C)(C)[C@H](NC(=O)c1cc(-n2cccc2)n(-c2ccc(Cl)cc2)n1)C(=O)O [Compound 2, RS2689-tLeu-OH] | – | 712 ± 18 | n.b. | – | –
16 | Cc1c(C(=O)N[C@H](C(=O)O)C(C)C)nn(-c2ccc(Cl)cc2Cl)c1-n1cccc1Cl [Compound 9, RS3516-Val-OH] | – | 3430 ± 283 | n.b. | – | –
17 | CNC(=O)[C@@H](NC(=O)c1cc(-n2cccc2)n(-c2ccc(Cl)cc2)n1)C(C)(C)C [Compound 32, RS2689-tLeu-NHCH3] | 42 ± 2.9 | 389 ± 51 | – | agonist | 120 ± 2
18 | Cc1c(C(=O)N[C@H](C(=O)O)C(C)(C)C)nn(-c2ccc(Cl)cc2)c1-n1cccc1 [Compound 4, RS2691-tLeu-OH] | 5880 ± 152 | 4610 ± 303 | – | – | –
19 | Cc1c(C(=O)N[C@H](C(=O)O)C(C)C)nn(-c2ccc(Cl)cc2)c1-n1cccc1 [Compound 3, RS2691-Val-OH] | – | > 10000 | n.b. | – | –
20 | CC(C)(C)[C@H](NC(=O)c1cc(-n2cccc2)n(-c2ccccc2)n1)C(N)=O [Compound 16, RS2708-tLeu-NH2] | 1470 ± 103 | 295 ± 38 | – | – | –
21 | COC(=O)[C@@H](NC(=O)c1nn(-c2ccccc2)c(-n2cccc2)c1C)C(C)(C)C [Compound 28, RS2709-tLeu-OCH3] | 369 ± 19 | 1030 ± 117 | – | – | 55 ± 5
22 | CNC(=O)[C@@H](NC(=O)c1nn(-c2ccc(Cl)cc2Cl)c(-n2cccc2Cl)c1C)C(C)C [Compound 39, RS3516-Val-NHCH3] | 185 ± 17 | 3540 ± 193 | modest affinity | weak inverse agonist | –
23 | CC(C)(C)[C@H](NC(=O)c1cc(-n2cccc2)n(-c2ccccc2)n1)C(=O)O [Compound 6, RS2708-tLeu-OH] | – | 2450 ± 118 | n.b. | – | –
24 | COC(=O)[C@@H](NC(=O)c1nn(-c2ccc(Cl)cc2)c(-n2cccc2)c1C)C(C)C [Compound 23, RS2691-Val-OCH3] | 55 ± 5.2 | 4870 ± 225 | – | – | –
25 | Cc1c(C(=O)N[C@H](C(N)=O)C(C)C)nn(-c2ccccc2)c1-n1cccc1 [Compound 17, RS2709-Val-NH2] | 1060 ± 72 | 4240 ± 377 | – | – | –
26 | CC(C)[C@H](NC(=O)c1cc(-n2cccc2)n(-c2ccccc2)n1)C(N)=O [Compound 15, RS2708-Val-NH2] | – | 1230 ± 121 | n.b. | – | –
27 | CNC(=O)[C@@H](NC(=O)c1nn(-c2ccccc2)c(-n2cccc2)c1C)C(C)C [Compound 37, RS2709-Val-NHCH3] | 1060 ± 85 | 7080 ± 398 | modest affinity | weak inverse agonist | 55 ± 9
28 | CNC(=O)[C@@H](NC(=O)c1cc(-n2cccc2)n(-c2ccc(Cl)cc2)n1)C(C)C [Compound 31, RS2689-Val-NHCH3] | 387 ± 33 | 601 ± 21 | modest affinity | weak inverse agonist | –
29 | CNC(=O)[C@@H](NC(=O)c1nn(-c2ccccc2)c(-n2cccc2)c1C)C(C)(C)C [Compound 38, RS2709-tLeu-NHCH3] | 42 ± 3.9 | – | – | antagonists | 102 ± 2
